Read-outs that look alike come from different tables or passages of the source.

In experiment [1] the target is T1, delta opioid receptor (Rattus norvegicus, UniProt P33533).
T1 construct: from tissue; host or cells: forebrain of male Wistar rats (particulate membrane preparation)
Kind of experiment: Rat Brain Delta Opioid Receptor Binding Assay. How it is done:
Procedure: Male, Wistar rats (150-250 g, VAF, Charles River, Kingston, N.Y.) were killed by CO2, and their brains were removed and placed immediately in ice cold Tris HCl buffer (50 mM, pH 7.4). The forebrains were separated from the remainder of the brain by a coronal transection, beginning dorsally at the colliculi and passing ventrally through the midbrain-pontine junction. After dissection, the forebrains were homogenized in Tris buffer in a Teflon®-glass homogenizer. The homogenate was diluted to a concentration of 1 g of forebrain tissue per 80 mL Tris and centrifuged at 39,000×g for 10 min. The pellet was resuspended in the same volume of Tris buffer containing 5 mM MgCl2 with several brief pulses from a Polytron homogenizer. This particulate preparation was used for the delta opioid binding assays. Following incubation with the delta selective peptide ligand ˜4 nM [^3H]DPDPE or 0.15 nM [^3H]naltrindole at 25° C. for 2.5 h in a 96-well plate with total volume of […], the plate contents were filtered through Wallac filtermat B sheets on a Tomtec 96-well harvester. The filters were rinsed three times with 2 mL of 10 mM HEPES (pH 7.4), and dried in a 650 W microwave oven for 1.75 min twice. To each sample area 2×50 μL of Betaplate Scint scintillation fluid (LKB) was added and the radioactivity was quantified on a LKB (Wallac) 1205 BetaPlate liquid scintillation counter.
(§1) Analysis: The data from the scintillation counter was used to calculate either the % inhibition compared to control binding (when only a single concentration of test compound was evaluated) or a Ki value (when a range of concentrations was tested). Percent inhibition was calculated as: [(total dpm-test compound dpm)/(total dpm-nonspecific dpm)]*100. Kd and Ki values were calculated using GraphPad PRISM data analysis program.

Experiment [2] concerns the target T2, mu opioid receptor (Rattus norvegicus, UniProt P33535).
T2 construct: from tissue; host or cells: forebrain of male Wistar rats (particulate membrane preparation)
Description: Rat Brain Mu Opioid Receptor Binding Assay. The protocol: Procedure: Male, Wistar rats (150-250 g, VAF, Charles River, Kingston, N.Y.) were killed by CO2, and their brains were removed and placed immediately in ice cold Tris HCl buffer (50 mM, pH 7.4). The forebrains were separated from the remainder of the brain by a coronal transection, beginning dorsally at the colliculi and passing ventrally through the midbrain-pontine junction. After dissection, the forebrains were homogenized in Tris buffer in a Teflon®-glass homogenizer. The homogenate was diluted to a concentration of 1 g of forebrain tissue per 80 mL Tris and centrifuged at 39,000×g for 10 min. The pellet was resuspended in the same volume of Tris buffer containing 5 mM MgCl2 with several brief pulses from a Polytron homogenizer. This particulate preparation was used for the mu opioid binding assays.
as §1

The mark [3] stands for this setting: rat forebrain membranes, [3H]DPDPE or [3H]naltrindole, 25° C., 2.5 h, read-out: delta (Ki).
Where [4] appears, read: rat forebrain membranes, [3H]DAMGO, 25° C., 2.5 h, read-out: mu (Ki).

T1 sequence (P33533 whole entry): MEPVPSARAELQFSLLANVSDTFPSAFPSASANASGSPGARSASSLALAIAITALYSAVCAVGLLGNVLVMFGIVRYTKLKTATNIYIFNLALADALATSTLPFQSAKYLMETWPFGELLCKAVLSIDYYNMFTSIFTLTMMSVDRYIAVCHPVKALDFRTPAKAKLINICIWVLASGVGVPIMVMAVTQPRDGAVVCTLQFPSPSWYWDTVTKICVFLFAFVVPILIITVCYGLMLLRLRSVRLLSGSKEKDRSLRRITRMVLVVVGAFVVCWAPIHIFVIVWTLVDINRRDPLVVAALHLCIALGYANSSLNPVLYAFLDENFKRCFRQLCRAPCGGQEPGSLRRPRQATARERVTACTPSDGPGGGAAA
T2 sequence (P33535 whole entry): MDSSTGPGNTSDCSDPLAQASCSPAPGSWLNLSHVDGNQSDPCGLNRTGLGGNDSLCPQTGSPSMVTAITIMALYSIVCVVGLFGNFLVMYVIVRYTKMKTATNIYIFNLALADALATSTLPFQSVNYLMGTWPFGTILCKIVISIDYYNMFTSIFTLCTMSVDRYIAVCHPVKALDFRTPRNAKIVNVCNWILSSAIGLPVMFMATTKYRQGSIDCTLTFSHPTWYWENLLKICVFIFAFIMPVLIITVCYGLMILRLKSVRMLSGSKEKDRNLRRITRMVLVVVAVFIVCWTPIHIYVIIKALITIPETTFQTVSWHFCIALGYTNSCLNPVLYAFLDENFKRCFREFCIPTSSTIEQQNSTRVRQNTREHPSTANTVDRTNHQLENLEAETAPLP

Consider `Oc1cccc2c1Oc1cc(-c3nnn[nH]3)ccc1C2C1CCNCC1` (stereo not shown) [4r, 9-Piperidin-4-yl-6-(1H-tetrazol-5-yl)-9H-xanthen-4-ol], for which the Ki in experiment [1] worked out at 14 nM.

In experiment [1], `Oc1cccc2c1Sc1cc(-c3ccncc3)ccc1C2C1CCN(Cc2ccccn2)CC1` (stereo not shown) [15q, 6-Pyridin-4-yl-9-(1-pyridin-2-ylmethyl-piperidin-4-yl)-9H-thioxanthen-4-ol] showed a Ki of 0.1 nM.

On to `COc1cccc2c1Sc1cc(-c3ccccc3NC(C)=O)ccc1C2C1CCNCC1` (stereo not shown) [13q, N-[2-(5-Methoxy-9-piperidin-4-yl-9H-thioxanthen-3-yl)-phenyl]-acetamide], for which, in experiment [1] (setting [3]), the Ki was 110 nM.

Consider `c1ccc(CN2CCC(C3c4ccccc4Oc4cc(-c5cccnc5)ccc43)CC2)cc1` (stereo not shown) [7f, 3-[9-(1-Benzyl-piperidin-4-yl)-9H-xanthen-3-yl]-pyridine], for which the Ki in experiment [1] turned out to be 783 nM; in experiment [2], 3120 nM.

On to `CCN(CC)C(=O)c1ccc2c(c1)Oc1ccccc1C2C1CCN(Cc2cccs2)CC1` (stereo not shown) [15a, 9-(1-Thiophen-2-ylmethyl-piperidin-4-yl)-9H-xanthene-3-carboxylic acid diethylamide], for which the Ki stood at 450 nM in experiment [1] and 4120 nM in experiment [2].

Take `CCN(CC)C(=O)c1ccc2c(c1)Oc1c(OC)cccc1C2C1CCNCC1` (stereo not shown) [6c, 5-Methoxy-9-piperidin-4-yl-9H-xanthene-3-carboxylic acid diethylamide]: the Ki in experiment [1] (setting [3]) is 277 nM; in experiment [2] (setting [4]), greater than 10000 nM.

For the compound `O=c1[nH]c(-c2ccc3c(c2)Oc2ccccc2C3C2CCNCC2)no1` (stereo not shown) [2m, 3-(9-Piperidin-4-yl-9H-xanthen-3-yl)-4H-[1,2,4]oxadiazol-5-one], the values for the Ki in experiment [1] and in experiment [2] were 634 nM and greater than 10000 nM, respectively.

`CC(=O)Nc1ccccc1-c1ccc2c(c1)Oc1c(O)cccc1C2C1CCN(Cc2ccccn2)CC1` (stereo not shown) [5e, N-{2-[5-Hydroxy-9-(1-pyridin-2-ylmethyl-piperidin-4-yl)-9H-xanthen-3-yl]-phenyl}-acetamide] displayed a Ki in experiment [1] of 0.1 nM.

In the case of `c1cncc(-c2ccc3c(c2)Oc2ccccc2C3C2CCN(Cc3ccoc3)CC2)c1` (stereo not shown) [5f, 3-[9-(1-Furan-3-ylmethyl-piperidin-4-yl)-9H-xanthen-3-yl]-pyridine], the Ki in experiment [1] (setting [3]) is 303 nM; in experiment [2] (setting [4]), 3160 nM.

For the compound `c1ccc2c(c1)Oc1cc(-c3nnn[nH]3)ccc1C2C1CCN(Cc2ccoc2)CC1` (stereo not shown) [4l, 1-Furan-3-ylmethyl-4-[3-(1H-tetrazol-5-yl)-9H-xanthen-9-yl]-piperidine], the values for the Ki in experiment [1] (setting [3]) and in experiment [2] (setting [4]) were 498 nM and 6320 nM, respectively.

Consider `CCN(CC)C(=O)c1ccc2c(c1)Oc1c(Cl)cccc1C2C1CCNCC1` (stereo not shown) [6k, 5-Chloro-9-piperidin-4-yl-9H-xanthene-3-carboxylic acid diethylamide], for which the Ki in experiment [1] (setting [3]) amounted to 274 nM; in experiment [2] (setting [4]) it was 5700 nM.

On to `CCN(CC)C(=O)c1ccc2c(c1)Oc1ccccc1C2C1CCN(C)CC1` (stereo not shown) [16a, 9-(1-Methyl-piperidin-4-yl)-9H-xanthene-3-carboxylic acid diethylamide], for which the Ki in experiment [1] was determined as 1140 nM; in experiment [2], 35200 nM.

As for `CCN(CC)C(=O)c1ccc2c(c1)Oc1ccccc1C2C1CCN(Cc2ccoc2)CC1` (stereo not shown) [9a, 9-(1-Furan-3-ylmethyl-piperidin-4-yl)-9H-xanthene-3-carboxylic acid diethylamide], the Ki is 141 nM in experiment [1] and 51000 nM in experiment [2].

On to `O=C(c1ccc2c(c1)Oc1ccccc1C2C1CCN(CCc2ccccc2)CC1)N1CC[C@H](O)C1` (stereo partly drawn) [6n, (3-(S)-Hydroxy-pyrrolidin-1-yl)-[9-(1-phenethyl-piperidin-4-yl)-9H-xanthen-3-yl]-methanone], for which the values for the Ki in experiment [1] (setting [3]) and in experiment [2] (setting [4]) were 7050 nM and 3400 nM, respectively.

As for `CCN(CC)C(=N)c1ccc2c(c1)Oc1ccccc1C2C1CCNCC1` (stereo not shown) [1p, N,N-Diethyl-9-piperidin-4-yl-9H-xanthene-3-carboxamidine], the Ki in experiment [1] is 51.1 nM; in experiment [2] it was greater than 10000 nM.

`C=CCN1CCC(C2c3ccccc3Oc3cc(C(=O)N4CC[C@H](O)C4)ccc32)CC1` (stereo partly drawn) [7n, [9-(1-Allyl-piperidin-4-yl)-9H-xanthen-3-yl]-(3-(S)-hydroxy-pyrrolidin-1-yl)-methanone]: the Ki in experiment [1] (setting [3]) came out at 9230 nM.

For `CCN(CC)C(=O)c1ccc2c(c1)Oc1ccccc1C2C1CCN(CCc2ccccc2)CC1` (stereo not shown) [12a, 9-(1-Phenethyl-piperidin-4-yl)-9H-xanthene-3-carboxylic acid diethylamide], the Ki in experiment [1] is 3830 nM; in experiment [2], 976 nM.

In the case of `c1ccc2c(c1)Oc1cc(-c3ccncc3)ccc1C2C1CCNCC1` (stereo not shown) [2h, 4-(9-Piperidin-4-yl-9H-xanthen-3-yl)-pyridine], the Ki in experiment [1] (setting [3]) is 4530 nM; in experiment [2] (setting [4]), greater than 10000 nM.

Regarding `CCN(CC)C(=O)c1ccc2c(c1)Oc1ccccc1C2C1CCN(Cc2ccccn2)CC1` (stereo not shown) [11a, 9-(1-Pyridin-2-ylmethyl-piperidin-4-yl)-9H-xanthene-3-carboxylic acid diethylamide], the Ki came to 2700 nM in experiment [1] and 15100 nM in experiment [2].

Take `COc1cccc2c1Sc1cc(-c3ccncc3)ccc1C2C1CCNCC1` (stereo not shown) [11q, 4-(5-Methoxy-9-piperidin-4-yl-9H-thioxanthen-3-yl)-pyridine]: the Ki in experiment [1] is 68.1 nM.

As for `CC(=O)Nc1ccccc1-c1ccc2c(c1)Oc1ccccc1C2C1CCN(Cc2ccccn2)CC1` (stereo not shown) [4g, N-{2-[9-(1-Pyridin-2-ylmethyl-piperidin-4-yl)-9H-xanthen-3-yl]-phenyl}-acetamide], the Ki was 167 nM in experiment [1] (setting [3]) and 6980 nM in experiment [2] (setting [4]).

In experiment [1], `CC(=O)Nc1ccccc1-c1ccc2c(c1)Oc1c(O)cccc1C2C1CCN(Cc2cccs2)CC1` (stereo not shown) [6e, N-{2-[5-Hydroxy-9-(1-thiophen-2-ylmethyl-piperidin-4-yl)-9H-xanthen-3-yl]-phenyl}-acetamide] showed a Ki of 0.1 nM.

Turning to `C=CCN1CCC(C2c3ccc(-c4ccccc4NC(C)=O)cc3Sc3c(O)cccc32)CC1` (stereo not shown) [16q, N-{2-[9-(1-Allyl-piperidin-4-yl)-5-hydroxy-9H-thioxanthen-3-yl]-phenyl}-acetamide], in experiment [1] (setting [3]), the Ki is 121 nM.

In turn, `CC(=O)Nc1ccccc1-c1ccc2c(c1)Sc1c(O)cccc1C2C1CCNCC1` (stereo not shown) [14q, N-[2-(5-Hydroxy-9-piperidin-4-yl-9H-thioxanthen-3-yl)-phenyl]-acetamide] showed a Ki in experiment [1] of 0.2 nM.

Consider `C=CCN1CCC(C2c3ccc(-c4cccnc4)cc3Oc3c(O)cccc32)CC1` (stereo not shown) [6i, 9-(1-Allyl-piperidin-4-yl)-6-pyridin-3-yl-9H-xanthen-4-ol], for which the Ki in experiment [1] was found to be 27.5 nM.

As to `CCN(CC)C(=N)c1ccc2c(c1)Oc1ccccc1C2C1CCN(Cc2ccoc2)CC1` (stereo not shown) [3p, N,N-Diethyl-9-(1-furan-3-ylmethyl-piperidin-4-yl)-9H-xanthene-3-carboxamidine], the Ki in experiment [1] amounted to 16.1 nM.

For the compound `Oc1cccc2c1Oc1cc(-c3cccnc3)ccc1C2C1CCN(Cc2cccs2)CC1` (stereo not shown) [4i, 6-Pyridin-3-yl-9-(1-thiophen-2-ylmethyl-piperidin-4-yl)-9H-xanthen-4-ol], the Ki in experiment [1] turned out to be 96.7 nM.

For the compound `N#Cc1ccc2c(c1)Oc1c(O)cccc1C2C1CCNCC1` (stereo not shown) [5r, 5-Hydroxy-9-piperidin-4-yl-9H-xanthene-3-carbonitrile], the Ki in experiment [1] (setting [3]) came out at 166 nM.

Take `CC(=O)Nc1ccccc1-c1ccc2c(c1)Sc1c(O)cccc1C2C1CCN(Cc2ccccn2)CC1` (stereo not shown) [19q, N-{2-[5-Hydroxy-9-(1-pyridin-2-ylmethyl-piperidin-4-yl)-9H-thioxanthen-3-yl]-phenyl}-acetamide]: the Ki in experiment [1] was found to be 0.1 nM.

With `Oc1cccc2c1Sc1cc(-c3cccnc3)ccc1C2C1CCNCC1` (stereo not shown) [10q, 9-Piperidin-4-yl-6-pyridin-3-yl-9H-thioxanthen-4-ol], the Ki in experiment [1] is 0.2 nM.

`Oc1cccc2c1Sc1cc(-c3ccncc3)ccc1C2C1CCNCC1` (stereo not shown) [12q, 9-Piperidin-4-yl-6-pyridin-4-yl-9H-thioxanthen-4-ol]: the Ki in experiment [1] was determined as 0.7 nM.

As for `COc1cccc2c1Sc1cc(-c3cccnc3)ccc1C2C1CCNCC1` (stereo not shown) [9q, 3-(5-Methoxy-9-piperidin-4-yl-9H-thioxanthen-3-yl)-pyridine], the Ki in experiment [1] was found to be 87.8 nM.

In experiment [1], `Oc1cccc2c1Oc1cc(-c3cccnc3)ccc1C2C1CCN(Cc2ccccc2)CC1` (stereo not shown) [5i, 9-(1-Benzyl-piperidin-4-yl)-6-pyridin-3-yl-9H-xanthen-4-ol] had a Ki of 94 nM.

The compound `Oc1cccc2c1Sc1cc(-c3cccnc3)ccc1C2C1CCN(Cc2ccccn2)CC1` (stereo not shown) [18q, 6-Pyridin-3-yl-9-(1-pyridin-2-ylmethyl-piperidin-4-yl)-9H-thioxanthen-4-ol] came in with a Ki in experiment [1] of 0.4 nM.

These data come from patent publication US20060135522A1, “Tricyclic delta-opioid modulators” (priority 2004, published 2006).
